In patent US20100317672A1, “Monomaleate Monohydrate Salt of a 5HT1A Receptor Antagonist” (GLAXO GROUP LIMITED, priority 2008, published 2010):
Structures can show the parent of a compound that is named as a salt.

Legend:
[1] = hygroscopicity of the dihydrochloride salt (stated in words, no method); format: physicochemical; settings: shows variable stoichiometry
[2] = solubility of the free base (stated in words, no method); format: physicochemical; settings: said to be therefore not readily bioavailable
[3] = biological target: 5-HT1B receptor (Homo sapiens, UniProt P28222); assay: antagonism of the 5-HT1B receptor, selectivity comparison (stated in words, no method); format: biochemical; settings: better antagonist of 5-HT1A than of 5-HT1B
5-HT1B receptor, sequence (P28222 whole entry): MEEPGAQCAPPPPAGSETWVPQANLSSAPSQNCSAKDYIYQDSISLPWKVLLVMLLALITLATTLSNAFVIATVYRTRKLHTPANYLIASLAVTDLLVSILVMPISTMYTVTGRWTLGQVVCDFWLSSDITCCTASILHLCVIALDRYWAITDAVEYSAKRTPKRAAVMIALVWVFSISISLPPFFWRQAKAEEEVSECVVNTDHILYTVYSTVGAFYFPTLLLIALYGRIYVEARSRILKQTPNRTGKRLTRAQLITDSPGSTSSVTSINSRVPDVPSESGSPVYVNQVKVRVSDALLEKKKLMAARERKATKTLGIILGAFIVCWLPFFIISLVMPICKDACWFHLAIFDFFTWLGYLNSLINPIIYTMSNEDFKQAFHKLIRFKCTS

[4] = biological target: T1, 5-HT1A receptor (Homo sapiens, UniProt P08908); assay: antagonism of the 5-HT1A receptor (stated in words, no method); format: biochemical
T1 sequence (P08908 1-422): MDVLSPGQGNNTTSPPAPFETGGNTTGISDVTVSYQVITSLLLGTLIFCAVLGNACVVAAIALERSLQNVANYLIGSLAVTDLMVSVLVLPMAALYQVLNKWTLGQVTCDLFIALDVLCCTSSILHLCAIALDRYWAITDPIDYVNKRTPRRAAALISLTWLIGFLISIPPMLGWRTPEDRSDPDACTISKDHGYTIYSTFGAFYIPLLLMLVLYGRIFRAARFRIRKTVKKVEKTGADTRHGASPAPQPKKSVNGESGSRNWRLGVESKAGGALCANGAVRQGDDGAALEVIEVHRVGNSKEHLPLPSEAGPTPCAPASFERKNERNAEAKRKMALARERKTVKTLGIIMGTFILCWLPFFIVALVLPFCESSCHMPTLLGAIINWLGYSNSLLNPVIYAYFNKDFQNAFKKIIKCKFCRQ

Q: With Cc1ccc2c(N3CCN(CCc4c(C)ccc5c4CCc4c(C(N)=O)ncn4-5)CC3)cccc2n1 [dihydrochloride salt, 7-methyl-6-{2-[4-(2-methyl-5-quinolinyl)-1-piperazinyl]ethyl}-4,5-dihydroimidazo[1,5-a]quinoline-3-carboxamide] as the molecule, how does the hygroscopicity [1] read?
A: hygroscopic

Q: For Cc1ccc2c(N3CCN(CCc4c(C)ccc5c4CCc4c(C(N)=O)ncn4-5)CC3)cccc2n1 [free base, 7-methyl-6-{2-[4-(2-methyl-5-quinolinyl)-1-piperazinyl]ethyl}-4,5-dihydroimidazo[1,5-a]quinoline-3-carboxamide], which solubility [2] is on record?
A: insoluble

Q: With Cc1ccc2c(N3CCN(CCc4c(C)ccc5c4CCc4c(C(N)=O)ncn4-5)CC3)cccc2n1.O.O=C(O)/C=C\C(=O)O [salt of the invention, 7-methyl-6-{2-[4-(2-methyl-5-quinolinyl)-1-piperazinyl]ethyl}-4,5-dihydroimidazo[1,5-a]quinoline-3-carboxamide monomaleate monohydrate] as the molecule, how does the “selectivity for the 5-HT1A receptor over the 5-HT1B receptor” value [3] read?
A: high selectivity

Q: What about the “antagonist of the 5-HT1A receptor” value [4] of the same molecule?
A: effective antagonist
